Data on nine molecules can be found in article PMC4858680, “A platinum-based hybrid drug design approach to circumvent acquired resistance to molecular targeted tyrosine kinase inhibitors” (Scientific Reports, 2016).

Read-outs that look alike come from different tables or passages of the source.

Data set [1] is described as follows: Chemical stability of the hybrid compounds. As to conditions: for chemical stability in culture medium: Dulbecco’s Modified Eagle Medium supplemented with 5 mM glutathione.
Data set [2] relates to H292. Put plainly: Anticancer activity (cytotoxicity) in NSCLC cell line. As to conditions: NSCLC; EGFR wild type; read-out: Anticancer activity (IC50) H292. The class given is cell-based.
The target in data set [3] is P-gp (MDCKII–P-gp) (Homo sapiens, UniProt P08183). As to conditions: 10 μM, mean of three experiments.
Sequence of P-gp (MDCKII–P-gp) (P08183 whole entry): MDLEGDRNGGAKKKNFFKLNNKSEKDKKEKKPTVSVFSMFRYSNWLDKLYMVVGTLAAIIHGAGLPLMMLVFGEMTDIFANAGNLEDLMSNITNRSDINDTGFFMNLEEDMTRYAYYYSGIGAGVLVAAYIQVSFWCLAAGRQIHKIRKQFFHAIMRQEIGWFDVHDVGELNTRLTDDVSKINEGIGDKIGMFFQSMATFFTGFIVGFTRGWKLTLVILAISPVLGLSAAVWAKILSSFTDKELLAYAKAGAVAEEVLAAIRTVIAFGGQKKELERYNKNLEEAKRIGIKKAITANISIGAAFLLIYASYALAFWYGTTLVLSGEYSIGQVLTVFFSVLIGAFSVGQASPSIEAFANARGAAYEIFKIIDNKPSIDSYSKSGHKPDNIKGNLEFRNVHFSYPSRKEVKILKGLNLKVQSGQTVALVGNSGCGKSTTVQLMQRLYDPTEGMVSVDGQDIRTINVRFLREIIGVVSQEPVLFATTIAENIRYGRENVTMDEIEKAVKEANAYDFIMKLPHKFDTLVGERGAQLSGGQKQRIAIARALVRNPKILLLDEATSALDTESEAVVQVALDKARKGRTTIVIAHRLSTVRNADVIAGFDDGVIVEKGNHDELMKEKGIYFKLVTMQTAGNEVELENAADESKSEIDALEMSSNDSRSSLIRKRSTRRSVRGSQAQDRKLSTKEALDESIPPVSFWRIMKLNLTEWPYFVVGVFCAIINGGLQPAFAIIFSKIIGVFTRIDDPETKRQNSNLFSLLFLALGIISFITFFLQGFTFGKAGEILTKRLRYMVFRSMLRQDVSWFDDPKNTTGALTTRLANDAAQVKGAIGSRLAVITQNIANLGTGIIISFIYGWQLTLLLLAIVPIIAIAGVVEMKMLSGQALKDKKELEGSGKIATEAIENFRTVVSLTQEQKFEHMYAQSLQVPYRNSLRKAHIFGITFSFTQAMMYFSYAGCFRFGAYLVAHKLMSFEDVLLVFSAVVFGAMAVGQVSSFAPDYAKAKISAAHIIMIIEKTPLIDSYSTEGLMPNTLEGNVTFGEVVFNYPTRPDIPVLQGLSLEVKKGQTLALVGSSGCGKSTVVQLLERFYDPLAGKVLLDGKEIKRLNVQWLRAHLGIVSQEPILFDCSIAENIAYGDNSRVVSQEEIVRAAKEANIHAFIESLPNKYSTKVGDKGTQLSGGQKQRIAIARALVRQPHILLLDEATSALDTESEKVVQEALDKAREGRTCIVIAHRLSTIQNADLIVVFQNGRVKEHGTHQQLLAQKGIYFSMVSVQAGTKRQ
Data set [4] relates to K562. Put plainly: Anticancer activity (cytotoxicity) in CML cell line. The class given is cell-based.
Data set [5] relates to HEK293 Bcr-Abl E255K. Briefly: Anticancer activity in HEK293 stably transfected with Bcr-Abl E255K. The class given is cell-based. As to conditions: for IC50: stably transfected.
The subject of data set [6] is HCC827. Briefly: Anticancer activity (cytotoxicity) in NSCLC cell line. The class given is cell-based. The note with it: EGFR ΔE746-A750 (sensitizing).
The test system of data set [7] is RPMI8226. Briefly: Anticancer activity (cytotoxicity) in Bcr-Abl negative cell line. The class given is cell-based.
For data set [8], the system named is p38. Put plainly: Western blot analysis of p38 phosphorylation. The format is cell-based.
Data set [9] concerns K562 Ima1.0. Put plainly: Anticancer activity in imatinib-selected resistant K562 subline. The class given is cell-based. The note with it: for IC50: read-out: Anticancer activity (IC50) K562 Imatinib selected (K562 Ima1.0), Bcr-Abl amplification.
Data set [10] relates to HEK293 Bcr-Abl wild type. Put plainly: Anticancer activity in HEK293 stably transfected with wild type Bcr-Abl. The format is cell-based.
For data set [11], the system named is HEK293 Mock transfected. Briefly: Anticancer activity in mock transfected HEK293. The class given is cell-based. As to conditions: Bcr-Abl negative.
The subject of data set [12] is H1975. Put plainly: Anticancer activity (cytotoxicity) in NSCLC cell line. As to conditions: H1975 versus HCC827. The class given is cell-based.
Data set [13] concerns the target T1, ABCG2 (Homo sapiens, UniProt Q9UNQ0, R482G).
T1 construct: endogenous in cells; host or cells: S1M1-80
Briefly: 5D3 shift assay. The format is cell-based. The note with it: ABCG2-overexpressing S1M1-80 cells; flow cytometry.

The target of data set [14] is P-gp (Homo sapiens, UniProt P08183). Briefly: UIC2 shift assay. The class given is cell-based. Details: endogenous in cells; host or cells: SW620 Ad300. The note with it: P-gp overexpressing SW620 Ad300 cells; flow cytometry.
Sequence of P-gp (P08183 whole entry): as above
Data set [15] has as its system phosphor-γ-H2Ax.
The subject of data set [16] is ERK1/2 in K562 Ima1.0.
Setting [17] is: CML cell line, Bcr-Abl positive, Table 1, read-out: Anticancer activity (IC50) K562.
The mark [18] stands for this setting: Table 2, read-out: Anticancer activity (IC50) K562 Sensitive parental.

T1 sequence (Q9UNQ0 whole entry R482G): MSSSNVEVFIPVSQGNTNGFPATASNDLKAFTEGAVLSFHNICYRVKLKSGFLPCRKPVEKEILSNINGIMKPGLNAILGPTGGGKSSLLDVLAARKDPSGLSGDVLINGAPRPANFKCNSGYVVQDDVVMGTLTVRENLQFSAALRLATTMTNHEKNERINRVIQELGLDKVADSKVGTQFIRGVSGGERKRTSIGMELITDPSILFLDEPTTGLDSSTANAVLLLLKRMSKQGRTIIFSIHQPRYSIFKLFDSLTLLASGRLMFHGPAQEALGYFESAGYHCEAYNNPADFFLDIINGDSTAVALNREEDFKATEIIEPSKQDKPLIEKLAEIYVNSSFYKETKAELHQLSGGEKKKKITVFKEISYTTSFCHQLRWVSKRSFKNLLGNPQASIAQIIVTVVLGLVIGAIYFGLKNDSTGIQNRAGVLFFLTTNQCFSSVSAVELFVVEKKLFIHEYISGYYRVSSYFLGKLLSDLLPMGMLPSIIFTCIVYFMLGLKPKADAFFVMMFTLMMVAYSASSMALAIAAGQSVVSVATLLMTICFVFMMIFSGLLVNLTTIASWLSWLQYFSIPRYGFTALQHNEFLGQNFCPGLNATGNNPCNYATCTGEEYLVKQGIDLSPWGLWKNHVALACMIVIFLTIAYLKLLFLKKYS

As usually defined, the IC50 is the concentration needed to halve the response being measured. With `C#Cc1cccc(Nc2c3cc(OCCOC)c(OCCOC)cc3nc[n+]2[Pt-2]2([Cl])[NH2+]C3CCCCC3[NH2+]2)c1` (stereo not drawn) [2b, oxaliplatin-erlotinib], the “chemical stability in all conditions tested” value in data set [1] (saline, phosphate buffered solution (pH 4 and 7.4), culture medium with 5 mM glutathione) was “stable”. Further, in data set [2], the IC50 amounted to 1.33 ± 0.39 µM. Also, the “A to B transport (apparent permeability)” value in data set [3] is reported as 6.59 × 10^−6.

On to `N.N.[Cl][Pt][Cl]` [Cisplatin], for which the IC50 in data set [4] (setting [17]) came to 19.8 ± 1.42 µM; in data set [4] (setting [18]), 19.8 ± 1.42 µM; in data set [2], 2.12 ± 0.87 µM; in data set [5] it was 6.54 ± 0.49 µM; in data set [6], 6.65 ± 1.66 µM; in data set [7] it was 2.97 ± 0.82 µM. For the same molecule, the IC50 in data set [9] is 17.5 ± 1.06 µM; in data set [10], 8.16 ± 1.01 µM; in data set [11] it was 5.43 ± 0.72 µM. Further, the “p38 phosphorylation (Western blot)” value in [8] is “induce p38 phosphorylation”.

With `COc1cc2c(Nc3ccc(Br)cc3F)[n+]([Pt@SP2-2]([NH2])([NH3+])[Cl])cnc2cc1OCC1CCN(C)CC1` [3a, cisplatin-vandetanib], the IC50 in data set [2] worked out at 26.4 ± 3.19 µM.

For `COc1cc2c(Nc3ccc(Br)cc3F)[n+]([Pt@SP3-2]([NH2])([NH3+])[Cl])cnc2cc1OCC1CCN(C)CC1` [3c, transplatin-vandetanib], the IC50 in data set [2] was determined as 18.4 ± 4.48 µM.

In the case of `O=C1[O][Pt]2([NH][C@@H]3CCCC[C@H]3[NH]2)[O]C1=O` [Oxaliplatin], the IC50 is 16.6 ± 2.08 µM in [4] (setting [17]); 16.6 ± 2.08 µM in [4] (setting [18]); 3.77 ± 0.35 µM in data set [2]; 2.65 ± 0.71 µM in data set [5]; 3.6 ± 1.76 µM in [6]; 0.43 ± 0.04 µM in data set [7]. The IC50 is 16.4 ± 1.14 µM in [9], 3.15 ± 0.87 µM in data set [10] and 2.41 ± 0.32 µM in [11]. The “Fold resistance HEK293 Bcr-Abl E255K” value in data set [5] (versus HEK293 Bcr-Abl wild type) was 0.8. Also, in data set [9] (versus sensitive parental K562), the “Fold resistance K562 Ima1.0” value is reported as 1.0. Further, in data set [12], the “Fold resistance (IC50 in H1975/IC50 in HCC827)” value was found to be 1.4.

For `O=c1c(O)c(-c2ccc(O)c(O)c2)oc2cc(O)cc(O)c12` [quercetin], the “5D3 shift (interaction with ABCG2)” value in data set [13] was “concentration dependent antibody shift”.

As for `C=C[C@H]1C[N@@]2CC[C@H]1C[C@H]2[C@H](O)c1ccnc2ccc(OC)cc12` [quinine], the “UIC2 shift (interaction with P-gp)” value in [14] is “concentration dependent antibody shift”.

As to `C#Cc1cccc(Nc2c3cc(OCCOC)c(OCCOC)cc3nc[n+]2[Pt@SP3-2]([NH3+])([NH3+])[Cl])c1` [2c, transplatin-erlotinib], in data set [1], the “chemical stability in culture medium” value is “undergo gradual degradation to release the original TKI”. In addition, in [3], the “A to B transport (apparent permeability)” value is reported as 3.57 × 10^−6 and the “B to A transport (apparent permeability)” value is given as 3.40 × 10^−6.

On to `Cc1ccc(NC(=O)c2ccc(CN3CCN(C)CC3)cc2)cc1Nc1nccc(-c2cccnc2)[n+]1[Pt@SP3-2]([NH3+])([NH3+])[Cl]` [1c, transplatin-imatinib], for which, in data set [1], the “chemical stability in culture medium” value is listed as “undergo gradual degradation to release the original TKI”. Besides, the “DNA damage marker (phosphor-γ-H2Ax) (Western blot)” value in data set [15] was “concentration dependent upregulation”. The IC50 in data set [4] (setting [17]) came out at 1.04 ± 0.01 µM; in data set [4] (setting [18]), 1.04 ± 0.01 µM; in data set [9], 1.05 ± 0.14 µM; in [11], 10.1 ± 1.39 µM. The “activation of downstream ERK1/2 (Western blot)” value in data set [16] is on record as “able to inhibit the activation”.
